{
  "source": "patent US20110142971A1",
  "about": "“USE OF AN ONION EXTRACT FOR MAKING A COMPOSITION TO CONTROL WEIGHT GAIN” (priority 2005, published 2011)",
  "origin": "cited, not measured here",
  "key": {"pancreatic lipase": {"molecular_target": "T1, pancreatic lipase (Homo sapiens, UniProt P16233)", "T1 construct": "host or cells: human subjects (in vivo, digestive tract)", "T1 sequence (P16233 17-465)": "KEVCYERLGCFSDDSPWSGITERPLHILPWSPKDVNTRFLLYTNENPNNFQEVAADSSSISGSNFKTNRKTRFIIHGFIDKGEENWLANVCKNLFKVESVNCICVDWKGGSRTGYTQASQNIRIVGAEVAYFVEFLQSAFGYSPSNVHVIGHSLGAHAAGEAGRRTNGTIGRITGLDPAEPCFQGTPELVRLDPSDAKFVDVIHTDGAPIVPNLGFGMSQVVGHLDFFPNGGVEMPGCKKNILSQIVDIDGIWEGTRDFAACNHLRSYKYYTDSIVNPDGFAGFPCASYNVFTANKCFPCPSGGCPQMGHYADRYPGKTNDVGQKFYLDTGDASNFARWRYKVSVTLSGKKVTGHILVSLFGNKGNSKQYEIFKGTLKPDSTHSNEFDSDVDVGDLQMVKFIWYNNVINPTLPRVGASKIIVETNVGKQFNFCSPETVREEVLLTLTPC", "details": "human species"}, "[1]": {"details": "in vivo"}},
  "data": [
    {"smiles": "CCCCCCCCCCC[C@@H](C[C@@H]1OC(=O)[C@H]1CCCCCC)OC(=O)[C@H](CC(C)C)NC=O", "note": "[tetrahydrolipstatin, [2S-[2-α(R),3β]]-N-formyl-L-leucine 1-[(3-hexyl-4-oxo-2-oxetanyl)methyl]dodecyl ester]", "values": [
      {"measurement": "Average reduction of the lipids contained in food", "setting": "pancreatic lipase", "value": "about one third"},
      {"measurement": "Side effects", "setting": "[1]", "value": "steatorrhoea, anal exudation, abdominal pains, nausea and vomiting, or fat-soluble vitamin absorption reduction"}
    ]}
  ]
}
